US12545653B2, “Compound as PPAR agonist and application thereof” (USA Elixiria Biotech Inc., priority 2019, dated 2026)

Columns and labels:
[1] = system: dIoN-CCI rat model of trigeminal neuropathic pain; settings: in vivo
Text: A common rat model of trigeminal neuralgia is a chronic compression injury model (CCI) caused by ligation of the infraorbital nerve (IoN). In the present study, an improved rat model of trigeminal neuropathic pain was used, in which CCI is induced by ligation of distal segment of IoN (dIoN). Wild type male Sprague-Dawley rats with body weight 250 to 260 grams underwent dIoN-CCI surgery experiments. The mechanical threshold of pain in rats without surgery experiments will exceed 6 grams. If the dIoN-CCI surgery is successful, it will reduce the pain threshold to less than 2 grams.
The mice were divided into the following 11 groups with 4 to 5 mice in each group. The formulation used for transdermal treatment is cream. […] The compound administration of each group starts on the third day after successful dIoN-CCI surgery. […] The method for detecting rat facial hypersensitivity is performed using Von Frey filaments. An analysis of variance (ANOVA) and Dunnett post hoc comparison test are used to compare the significance of the differences between different groups of data. The difference is significant with P<0.05.

LN-229 cells = test: Brain cancer model, LN-229 cells injected into the striatum, tumor volume; type: in vivo, mouse; settings: mice with LN-229 cells in striatum, 5 mg/kg body weight/day
Procedure: The treatment lasted for a total of 30 days. The compounds was dissolved in DMSO and mixed into food pellets. The animals were given ad libitum access to the pellets. […] The difference is significant with P<0.05.

db−/db− mice = test: Diabetic peripheral neuropathy model, Von Frey threshold, sciatic nerve ROS and MDA; type: in vivo, mouse; settings: in food 10 mg/kg body weight/day (pregabalin 30 mg/kg body weight/day); for level of MDA in the sciatic nerve after 10 week treatment / level of mitochondrial ROS in the sciatic nerve after 10 week treatment: compared with healthy control group; for mechanical pain threshold after 10 week treatment: compared with normal control group
Procedure: Male 5-6 week-old male db^−/db^− mice were used in the experiment, and their normoglycemic heterozygous littermates were used as controls. db^−/db^− is a commonly used type 2 diabetes animal model. The compounds was dissolved in DMSO and mixed into food pellets. The animals were given ad libitum access to the pellets, beginning from 8 to 9 weeks of age for 10 weeks. […] The method for detecting mice hindlimb hypersensitivity is performed using Von Frey filaments. […] The difference is significant with P<0.05. The increase of mitochondrial reactive oxygen species (ROS) in the sciatic nerve of mice, which in turn leads to the increase of intracellular malondialdehyde (MDA), is the etiology of this type of neuropathic pain. The efficacy of compound to treat the root cause of the disease was evaluated by measurement of the levels of MDA and mitochondrial ROS from the sciatic nerves.

HEK 293T cells = test: Inhibition of reactive oxygen species production (ROS-Glo H2O2 Assay); type: cell-based, human; settings: 18 hours incubation
Procedure: Mitochondrial reactive oxygen species-induced oxidative stress is the source of many diseases. This experiment is used to test whether the carbonyl-containing cyclic compounds provided by the present invention can reduce the production of reactive oxygen species. HEK 293T cells were divided into 96-well plates at 5000 cells per well, cultured in a 37° C. carbon dioxide incubator with serum-free Duchenne's Modified Eagle's Medium (DMEM) for 6 hours, and then representatives for compounds listed in Table 2 and 3 were added to a final concentration of 0, 0.1, 0.3, 1, 3, 10, 30 micromole/L, with each concentration in triplicate. After 18 hours of incubation, the reactive oxygen species detection kit (ROS-Glo™ H2O2 Assay) and the GloMax microplate fluorescence detector (Promega, USA) were used to detect reactive oxygen species production. At the same time, pioglitazone was used as a control. The amount of fluorescence is positively related to the production of reactive oxygen species. A three-parameter Sigmoid function curve was used to fit the obtained data. The abscissa represents the logarithmic value of the concentration, and the ordinate represents the percentage of reduced reactive oxygen species production relative to those of the control. Then EC50 value was calculated with professional software.

klotho gene promoter = test: In vitro transcriptional activity of klotho gene (KL-Luc-3 luciferase cell line); type: cell-based; settings: KL-Luc-3 cells; for EC50: 16 h, 16 hours incubation
Text: The activities of these carbonyl-containing cyclic compounds are indicated by the increased expression of klotho gene. […] The present invention retains the DNA fragment of the klotho gene promoter, but replaces the DNA sequence of the coding region of the klotho gene with those of luciferase, so that the degree of activation of the klotho gene promoter and the expression of the klotho gene will be sensitively determined by detecting the luciferase luminescence signal.
Klotho is an important downstream gene of PPARγ pathway. The following experiments tested the properties of the compounds in Table 2 and 3 to activate the klotho gene in vitro. First, a stable cell line, KL-Luc, was constructed. The klotho gene carried by the cell line retained the DNA sequence of klotho gene promoter, but the coding sequence of the klotho gene was replaced with luciferase. KL-Luc fragment includes a promoter sequence of the klotho gene (a DNA region of 18,000 base pairs in length upstream of the transcription start site of the gene) and a luciferase-encoding sequence. To construct the KL-Luc sequence containing lentiviral vector, the KL-Luc fragment was cloned into the pDONR vector using BP recombinase, so that the target fragment had attL recombination sites on both sides. Then the KL-Luc fragment was transferred from the pDONR vector to a lentiviral vector (without exogenous promoter) pLenti6/BLOCK-IT-DEST. The constructed lentiviral vector of the target fragment was then transfected into HEK293T cells, and then the KL-Luc gene lentiviral expression vector and the […] were co-transfected into HEK293T cells to perform lentiviral packaging. The virus was harvested, and virus titer was calculated. And the lentivirus was used to infect target cells. The stable strains were screened by adding drugs. Finally, monoclonal cell lines were selected from polyclonal cells by cell cloning. The effective luciferase expression of each monoclonal cell line was determined by quantitative polymerase chain reaction (qPCR). The inventors chose a third monoclonal cell line (KL-Luc-3) to continue the compound screening. The compounds of interest were the compounds in Table 2 and 3. At the same time, rosiglitazone and pioglitazone were used as a control. KL-Luc-3 cells were divided into 96-well plates at 5000 cells in 80 microL per well, cultured in a 37° C. carbon dioxide incubator with serum-free Duchenne's Modified Eagle's Medium (DMEM) for 6 hours, and then the compounds were added to a final concentration of 0, 0.1, 0.3, 1, 3, 10, 30 micromole/L, with each concentration in triplicate. After 16 hours of incubation, the SteadyLite (PerkinElmer, Waltham, MA) and the GloMax Microplate Luminometer (Promega, USA) were used for quantitation of luciferase activity. The amount of luminescence emitted from each well is positively related to the transcriptional activity of the klotho promoter. A three-parameter Sigmoid function curve was used to fit the obtained data. The abscissa represents the logarithmic value of the concentration, and the ordinate represents the percentage of the activity relative to those of the control. […] In Statistical analysis, the coefficient of variation is used to measure the robustness and repeatability of the experiment. […] The difference is significant with P<0.05. EC50 is a parameter of its activity. The lower the EC50 value, the higher the activity of corresponding compound.

[2] = system: MPTP-HCl Parkinson's disease model mice; test: Parkinson's disease model (MPTP-HCl), beam traversal test; settings: MPTP-HCl/probenecid mice, 5 mg/kg body weight intraperitoneal daily, 35 days
Procedure: Three month-old male wild type mice were used in the experiment. The treatment lasted for a total of 35 days. […] For all abovementioned groups, Motor skills were assessed on the 36th to 40th days after compound administration. Beam traversal test is a method commonly used in academia to detect movement coordination in animals with Parkinson's disease. […] The mice were first trained for 2 consecutive days, and taught to trained to traverse the length of the beam. On the day of the test, a mesh grid (1 cm squares) of corresponding width was placed over the beam surface leaving a ˜1 cm space between the grid and the beam surface. Animals were then videotaped while traversing the grid-surfaced beam for a total of five trials. An error was counted when, during a forward movement, a forelimb or hindlimb slipped through the grid. The number of errors made per step (referred to as “error per step scores”) was counted. An analysis of variance (ANOVA) and Dunnett post hoc comparison test are used to compare the significance of the differences between different groups of data. The difference is significant with P<0.05.

CCc1ccc(CC/C=C/c2ccc3c(c2)C(=O)CC3)cc1 [ELB00824, (E)-6-(4-(4-ethylphenyl)but-1-en-1-yl)-2,3-dihydro-1H-inden-1-one]
side effect at the time of administration [1]: no side effect | tumor volume at 30 days compared with disease control group (LN-229 cells): significant tumor volume reduction | level of MDA in the sciatic nerve after 10 week treatment (db−/db− mice): no difference | level of mitochondrial ROS in the sciatic nerve after 10 week treatment (db−/db− mice): no difference | mechanical pain threshold after 10 week treatment (db−/db− mice): no difference | inhibition of active oxygen production (up to), compared to the DMSO control (HEK 293T cells; 0-30 micromole/L): up to 45% | EC50 (klotho gene promoter): 1.5 µM | induced transcriptional activity of klotho gene relative to pioglitazone (klotho gene promoter): more than 66 folds | induced transcriptional activity of klotho gene relative to rosiglitazone (klotho gene promoter): 6 folds | klotho EC50 as fraction of that of pioglitazone (klotho gene promoter): less than 1/67 | klotho EC50 as fraction of that of rosiglitazone (klotho gene promoter): 1/6

CCc1ccc(CC/C=C/c2ccc3c(c2)OCCC3=O)cc1 [ELB001045, (E)-7-(4-(4-ethylphenyl)but-1-en-1-yl)chroman-4-one]
number of errors per step in beam traversal test compared with disease control group [2]: significantly lower | level of MDA in the sciatic nerve after 10 week treatment (db−/db− mice): reduced | level of mitochondrial ROS in the sciatic nerve after 10 week treatment (db−/db− mice): reduced | mechanical pain threshold after 10 week treatment (db−/db− mice): significantly improved | EC50 (klotho gene promoter): < 9.7 µM

CCc1ccc(CC/C=C/c2ccc3c(c2)C(=O)COC3)cc1 [ELB001046, (E)-6-(4-(4-ethylphenyl)but-1-en-1-yl)isochroman-4-one]
number of errors per step in beam traversal test compared with disease control group [2]: significantly lower | level of MDA in the sciatic nerve after 10 week treatment (db−/db− mice): reduced | level of mitochondrial ROS in the sciatic nerve after 10 week treatment (db−/db− mice): reduced | mechanical pain threshold after 10 week treatment (db−/db− mice): significantly improved | EC50 (HEK 293T cells; Homo sapiens, HEK-293T, 18 h): < 10 µM

CCc1ccc(OC/C=C/c2ccc3c(c2)C(=O)CC3)cc1 [ELB001115, (E)-6-(3-(4-ethylphenoxy)prop-1-en-1-yl)-2,3-dihydro-1H-inden-1-one]
number of errors per step in beam traversal test compared with disease control group [2]: significantly lower | level of MDA in the sciatic nerve after 10 week treatment (db−/db− mice): reduced | level of mitochondrial ROS in the sciatic nerve after 10 week treatment (db−/db− mice): reduced | mechanical pain threshold after 10 week treatment (db−/db− mice): significantly improved | EC50 (klotho gene promoter): < 9.7 µM

COc1ccc(CC/C=C/c2ccc3c(c2)C(=O)CC3)cc1 [ELB001116, (E)-6-(4-(4-methoxyphenyl)but-1-en-1-yl)-2,3-dihydro-1H-inden-1-one]
number of errors per step in beam traversal test compared with disease control group [2]: significantly lower | level of MDA in the sciatic nerve after 10 week treatment (db−/db− mice): no difference | level of mitochondrial ROS in the sciatic nerve after 10 week treatment (db−/db− mice): no difference | mechanical pain threshold after 10 week treatment (db−/db− mice): no difference | EC50 (klotho gene promoter): < 9.7 µM

CCc1ccc(CC/C=C/c2ccc3c(c2)C(=O)CC3)nc1 [ELB001125, (E)-6-(4-(5-ethylpyridin-2-yl)but-1-en-1-yl)-2,3-dihydro-1H-inden-1-one]
number of errors per step in beam traversal test compared with disease control group [2]: significantly lower | level of MDA in the sciatic nerve after 10 week treatment (db−/db− mice): reduced | level of mitochondrial ROS in the sciatic nerve after 10 week treatment (db−/db− mice): reduced | mechanical pain threshold after 10 week treatment (db−/db− mice): significantly improved | EC50 (klotho gene promoter): < 9.7 µM
